Test results published in the supplement of paper PMC10307832.

Assays:
Assay in all cases: relative viability (nuclei count vs DMSO), 5 days (fraction); higher = more cells survive
NCI-H1437 = system: NCI-H1437
Summary of the method: (§1)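 Five library-drug doses in √10 steps were combined with a fixed anchor-drug dose, or a single drug was given alone, by pin tool to lung cancer cell lines in 1536-well plates the day after seeding. Nuclei were stained and counted after 5 days. Relative viability is the nuclei count in treated wells over that in vehicle wells, taken as the median of duplicate plates.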

NCI-H1792 = system: NCI-H1792
Summary of the method: as §1

NCI-H650 = system: NCI-H650
Summary of the method: as §1

SK-MES-1 = system: SK-MES-1
Summary of the method: as §1

HCC-827 = system: HCC-827
Summary of the method: as §1

SW 900 = system: SW 900
Summary of the method: as §1

NCI-H1666 = system: NCI-H1666
Summary of the method: as §1

A-427 = system: A-427
Summary of the method: as §1

NCI-H1650 = system: NCI-H1650
Summary of the method: as §1

HCC-15 = system: HCC-15
Summary of the method: as §1

HCC-44 = system: HCC-44
Summary of the method: as §1

COR-L23 = system: COR-L23
Summary of the method: as §1

NCI-H1975 = system: NCI-H1975
Summary of the method: as §1

NCI-H2342 = system: NCI-H2342
Summary of the method: as §1

NCI-H358 = system: NCI-H358
Summary of the method: as §1

NCI-H441 = system: NCI-H441
Summary of the method: as §1

HARA = system: HARA
Summary of the method: as §1

NCI-H838 = system: NCI-H838
Summary of the method: as §1

201T = system: 201T
Summary of the method: as §1

NCI-H23 = system: NCI-H23
Summary of the method: as §1

BEN = system: BEN
Summary of the method: as §1

EKVX = system: EKVX
Summary of the method: as §1

Work on O=c1cc(-c2cccc3c2Sc2ccccc2S3)oc(N2CCOCC2)c1 + CC(=O)c1c(C)c2cnc(Nc3ccc(N4CCNCC4)cn3)nc2n(C2CCCC2)c1=O [Palbociclib] (partner 0.5 µM) yielded a relative viability (NCI-H1437; first compound 0.08 µM) of 0.302, a relative viability (NCI-H1437; first compound 0.253 µM) of 0.344 and a relative viability (NCI-H1437; first compound 0.8 µM) of 0.276. The relative viability (NCI-H1437; first compound 2.53 µM) was 0.25, the relative viability (NCI-H1437; first compound 8 µM) was 0.285 and the relative viability (NCI-H1792; first compound 0.08 µM) was 0.673. The relative viability (NCI-H1792; first compound 0.253 µM) was 0.847, the relative viability (NCI-H1792; first compound 0.8 µM) was 0.635 and the relative viability (NCI-H1792; first compound 2.53 µM) was 0.654. It also gave a relative viability (NCI-H1792; first compound 8 µM) of 0.688, a relative viability (NCI-H650; first compound 0.08 µM) of 0.346 and a relative viability (NCI-H650; first compound 0.253 µM) of 0.323. It also gave a relative viability (NCI-H650; first compound 0.8 µM) of 0.372, a relative viability (NCI-H650; first compound 2.53 µM) of 0.278 and a relative viability (NCI-H650; first compound 8 µM) of 0.36. The relative viability (SK-MES-1; first compound 0.08 µM) was 0.311, the relative viability (SK-MES-1; first compound 0.253 µM) was 0.321 and the relative viability (SK-MES-1; first compound 0.8 µM) was 0.313. For the same molecule, the relative viability (SK-MES-1; first compound 2.53 µM) was 0.294, the relative viability (SK-MES-1; first compound 8 µM) was 0.286 and the relative viability (HCC-827; first compound 0.08 µM) was 0.479. For the same molecule, the relative viability (HCC-827; first compound 0.253 µM) was 0.493, the relative viability (HCC-827; first compound 0.8 µM) was 0.444 and the relative viability (HCC-827; first compound 2.53 µM) was 0.37. The relative viability (HCC-827; first compound 8 µM) was 0.442, the relative viability (SW 900; first compound 0.253 µM) was 0.557 and the relative viability (SW 900; first compound 0.8 µM) was 0.555. It also gave a relative viability (SW 900; first compound 2.53 µM) of 0.492, a relative viability (SW 900; first compound 8 µM) of 0.469 and a relative viability (NCI-H1666; first compound 0.08 µM) of 0.638. It also gave a relative viability (NCI-H1666; first compound 0.253 µM) of 0.673, a relative viability (NCI-H1666; first compound 0.8 µM) of 0.679 and a relative viability (NCI-H1666; first compound 2.53 µM) of 0.659. For the same molecule, the relative viability (NCI-H1666; first compound 8 µM) was 0.601, the relative viability (A-427; first compound 0.08 µM) was 0.513 and the relative viability (A-427; first compound 0.253 µM) was 0.509. The relative viability (A-427; first compound 0.8 µM) was 0.49, the relative viability (A-427; first compound 2.53 µM) was 0.502 and the relative viability (A-427; first compound 8 µM) was 0.548. The relative viability (NCI-H1650; first compound 0.08 µM) was 0.377, the relative viability (NCI-H1650; first compound 0.253 µM) was 0.38 and the relative viability (NCI-H1650; first compound 0.8 µM) was 0.284. It also gave a relative viability (NCI-H1650; first compound 2.53 µM) of 0.311, a relative viability (NCI-H1650; first compound 8 µM) of 0.353 and a relative viability (HCC-15; first compound 0.08 µM) of 0.796. For the same molecule, the relative viability (HCC-15; first compound 0.253 µM) was 0.778, the relative viability (HCC-15; first compound 0.8 µM) was 0.79 and the relative viability (HCC-15; first compound 2.53 µM) was 0.695. The relative viability (HCC-15; first compound 8 µM) was 0.636, the relative viability (HCC-44; first compound 0.08 µM) was 0.965 and the relative viability (HCC-44; first compound 0.253 µM) was 0.918. For the same molecule, the relative viability (HCC-44; first compound 0.8 µM) was 0.919, the relative viability (HCC-44; first compound 2.53 µM) was 0.958 and the relative viability (HCC-44; first compound 8 µM) was 0.962. The relative viability (COR-L23; first compound 0.08 µM) was 0.291, the relative viability (COR-L23; first compound 0.253 µM) was 0.307 and the relative viability (COR-L23; first compound 0.8 µM) was 0.393. It also gave a relative viability (COR-L23; first compound 2.53 µM) of 0.334, a relative viability (COR-L23; first compound 8 µM) of 0.34 and a relative viability (NCI-H1975; first compound 0.08 µM) of 0.623. The relative viability (NCI-H1975; first compound 0.253 µM) was 0.863, the relative viability (NCI-H1975; first compound 0.8 µM) was 0.465 and the relative viability (NCI-H1975; first compound 2.53 µM) was 0.564. The relative viability (NCI-H1975; first compound 8 µM) was 0.744, the relative viability (NCI-H2342; first compound 0.08 µM) was 0.52 and the relative viability (NCI-H2342; first compound 0.253 µM) was 0.548. It also gave a relative viability (NCI-H2342; first compound 0.8 µM) of 0.515, a relative viability (NCI-H2342; first compound 2.53 µM) of 0.522 and a relative viability (NCI-H2342; first compound 8 µM) of 0.575. For the same molecule, the relative viability (NCI-H358; first compound 0.08 µM) was 0.135, the relative viability (NCI-H358; first compound 0.253 µM) was 0.144 and the relative viability (NCI-H358; first compound 0.8 µM) was 0.13. For the same molecule, the relative viability (NCI-H358; first compound 2.53 µM) was 0.134, the relative viability (NCI-H358; first compound 8 µM) was 0.152 and the relative viability (NCI-H441; first compound 0.08 µM) was 0.189. For the same molecule, the relative viability (NCI-H441; first compound 0.253 µM) was 0.187, the relative viability (NCI-H441; first compound 0.8 µM) was 0.215 and the relative viability (NCI-H441; first compound 2.53 µM) was 0.203. The relative viability (NCI-H441; first compound 8 µM) was 0.18, the relative viability (HARA; first compound 0.08 µM) was 0.253 and the relative viability (HARA; first compound 0.253 µM) was 0.201. The relative viability (HARA; first compound 0.8 µM) was 0.241, the relative viability (HARA; first compound 2.53 µM) was 0.209 and the relative viability (HARA; first compound 8 µM) was 0.266. It also gave a relative viability (NCI-H838; first compound 0.08 µM) of 0.187, a relative viability (NCI-H838; first compound 0.253 µM) of 0.265 and a relative viability (NCI-H838; first compound 0.8 µM) of 0.202. The relative viability (NCI-H838; first compound 2.53 µM) was 0.212, the relative viability (NCI-H838; first compound 8 µM) was 0.222 and the relative viability (201T; first compound 0.08 µM) was 0.348. It also gave a relative viability (201T; first compound 0.253 µM) of 0.362, a relative viability (201T; first compound 0.8 µM) of 0.373 and a relative viability (201T; first compound 2.53 µM) of 0.348. It also gave a relative viability (201T; first compound 8 µM) of 0.359, a relative viability (NCI-H23; first compound 0.08 µM) of 0.57 and a relative viability (NCI-H23; first compound 0.253 µM) of 0.485. The relative viability (NCI-H23; first compound 0.8 µM) was 0.498, the relative viability (NCI-H23; first compound 2.53 µM) was 0.451 and the relative viability (NCI-H23; first compound 8 µM) was 0.451. The relative viability (BEN; first compound 0.08 µM) was 0.464, the relative viability (BEN; first compound 0.253 µM) was 0.447 and the relative viability (BEN; first compound 0.8 µM) was 0.477. The relative viability (BEN; first compound 2.53 µM) was 0.452, the relative viability (BEN; first compound 8 µM) was 0.499 and the relative viability (EKVX; first compound 0.08 µM) was 0.582. It also gave a relative viability (EKVX; first compound 0.253 µM) of 0.657, a relative viability (EKVX; first compound 0.8 µM) of 0.345 and a relative viability (EKVX; first compound 2.53 µM) of 0.321. The relative viability (EKVX; first compound 8 µM) was 0.399.
